This note sets out measurements from patent US6906094B2, “1,2,4-tribsubstituted benzenes as inhibitors of 15-lipoxygenase” (Warner-Lambert Company, priority 2000, dated 2005).

SMILES strings stand for the structures. pIC50: −log10 of the molar value.

Data set [1] addresses T1, human 15-LO (Homo sapiens, UniProt P16050).
T1 construct: made in house; host or cells: Sf9 insect cells (baculovirus, Bac-to-Bac)
T1 sequence (P16050 1-662): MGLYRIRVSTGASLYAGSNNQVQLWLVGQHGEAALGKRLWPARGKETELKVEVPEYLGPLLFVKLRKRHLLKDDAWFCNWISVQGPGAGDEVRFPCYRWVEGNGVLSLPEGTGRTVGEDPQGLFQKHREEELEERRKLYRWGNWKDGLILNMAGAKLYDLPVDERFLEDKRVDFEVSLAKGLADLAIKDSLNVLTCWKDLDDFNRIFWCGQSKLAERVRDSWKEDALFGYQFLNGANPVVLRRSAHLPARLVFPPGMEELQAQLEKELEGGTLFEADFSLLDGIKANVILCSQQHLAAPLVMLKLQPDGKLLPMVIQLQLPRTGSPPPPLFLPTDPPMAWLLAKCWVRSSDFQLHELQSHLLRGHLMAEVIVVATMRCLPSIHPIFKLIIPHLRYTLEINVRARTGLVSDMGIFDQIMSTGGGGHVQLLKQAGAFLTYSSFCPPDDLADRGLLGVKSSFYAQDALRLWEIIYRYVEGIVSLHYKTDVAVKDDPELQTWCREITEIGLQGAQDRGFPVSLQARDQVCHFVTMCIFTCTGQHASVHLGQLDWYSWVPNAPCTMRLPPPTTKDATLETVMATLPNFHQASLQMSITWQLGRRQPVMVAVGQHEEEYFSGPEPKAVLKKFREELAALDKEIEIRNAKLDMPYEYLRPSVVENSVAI
Briefly: Human Lysate 15-LO Assay (HUM15LO). It counts as biochemical. As to conditions: recombinant human 15-LO, 174 μM linoleic acid, 15 minutes at 4° C., 13-HODE quantitated. The method in brief: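 Baculovirus-expressed recombinant enzyme incubated with compound and 174 μM linoleic acid in PBS with 0.2% sodium cholate, 15 min at 4° C. 13-HODE product quantitated against an authentic standard curve. Percent inhibition derived relative to a compound-free control reaction.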

Data set [2] has as its target T2, rabbit reticulocyte 15-LO (Oryctolagus cuniculus, UniProt P12530).
T2 construct: 15-LO is obtained from phenylhydrazine-treated rabbits and purified according to the method of Rapoport; from tissue; host or cells: reticulocytes of phenylhydrazine-treated rabbits
T2 sequence (P12530 1-663): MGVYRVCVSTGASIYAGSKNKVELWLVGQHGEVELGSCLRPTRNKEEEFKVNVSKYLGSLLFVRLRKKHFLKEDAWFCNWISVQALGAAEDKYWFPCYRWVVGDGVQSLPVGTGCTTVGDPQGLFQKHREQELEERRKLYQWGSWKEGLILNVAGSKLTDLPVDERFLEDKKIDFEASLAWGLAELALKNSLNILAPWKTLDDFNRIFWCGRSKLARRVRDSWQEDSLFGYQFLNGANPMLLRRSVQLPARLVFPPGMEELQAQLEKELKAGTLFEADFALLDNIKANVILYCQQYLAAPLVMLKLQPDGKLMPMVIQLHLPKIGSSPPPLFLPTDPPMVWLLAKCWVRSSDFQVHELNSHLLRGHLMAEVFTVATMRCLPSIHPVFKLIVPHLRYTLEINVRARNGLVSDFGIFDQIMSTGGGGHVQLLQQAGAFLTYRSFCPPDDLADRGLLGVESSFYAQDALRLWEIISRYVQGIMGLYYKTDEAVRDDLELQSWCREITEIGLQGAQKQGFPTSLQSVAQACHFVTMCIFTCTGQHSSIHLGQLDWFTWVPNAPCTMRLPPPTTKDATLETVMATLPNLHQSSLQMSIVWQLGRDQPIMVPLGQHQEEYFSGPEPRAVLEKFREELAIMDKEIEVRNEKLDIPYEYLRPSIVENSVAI
The data set is described as follows: Rabbit Reticulocyte 15-LO Assay (H15LO). It counts as biochemical. As to conditions: 2 U rabbit reticulocyte 15-LO, 174 μM linoleic acid, 15 minutes at 4° C., 13-HODE quantitated. Here is the method: In the H15LO assay, a test compound was incubated with 15-LO enzyme in the presence of the linoleic acid substrate. For example, 2 units (U) of rabbit reticulocyte 15-LO and 174 μM linoleic acid were incubated with a known amount of a test compound of the present invention for 15 minutes at 4° C. The total reaction volume was 100 μL in phosphate buffer saline (PBS) containing 0.2% sodium cholate. The reaction was stopped with 100 μL of mobile phase and […] of triethyl phosphite. […] 13-HODE was quantitated by comparing peak areas of individual samples with those from a standard curve generated using authentic 13-HODE.
15-LO is obtained from phenylhydrazine-treated rabbits and purified according to the method of Rapoport (Rapoport et al., European Journal of Biochemistry, 1979;96:545-561).

Consider `COc1ccc(-c2cc3cc(F)c(F)cc3[nH]2)cc1NS(=O)(=O)NC(=O)OCc1ccccc1` [Example 36, Carbamic Acid, [[[5-(5,6-difluoro-IH-indol-2-yl)-methoxyphenyl]amino]-sulfonyl]-, Phenylmethyl ester], for which the melting point (commonly the temperature, or range, at which the solid turns liquid) is 177 to 180 °C. The negative logarithm of the IC50 (pIC50) (commonly −log10 of the IC50, conventionally taken in molar units) in data set [1] was 7.89. Also, in data set [2], the pIC50 was 7.92.
The matching figures for `COc1ccc(C(=O)Nc2ccc(F)c(F)c2)cc1NS(=O)(=O)NC(=O)Nc1cccc(Cl)c1` [Example 61, Benzamide, 3-[[[[[(3-chlorophenyl)amino]carbonyl]amino]sulfonyl]amino]-N-(3,4-difluorophenyl)-4-methoxy]: 193 to 196 °C, 7.41 and 7.89.
`COc1ccc(-c2cc3cc(F)c(F)cc3[nH]2)cc1NS(=O)(=O)NC(=O)OCCCOCc1ccccc1` [Example 49, Carbamic Acid, [[[5-(5,6-difluoro-IH-indol-2-yl)-2-methoxyphenyl]-amino]sulfonyl]-3-(phenylmethoxy)propyl ester]: the melting point fell in the range of 166 to 168 °C. In addition, the negative-log IC50 (pIC50) in data set [1] is 7.82. The pIC50 in data set [2] was 8.30.
`COc1ccc(-c2cc3cc(F)c(F)cc3[nH]2)cc1NS(N)(=O)=O` [Example 54, Sulfamide, [5-(5,6-difluoro-IH-indol-2-yl)-2-methoxyphenyl]]: the melting point lay within 177 to 180 °C. Also, the negative-log IC50 (pIC50) in data set [1] is 7.92. In data set [2], this compound showed a negative logarithm of the IC50 (pIC50) of 8.00.
Take `CCCCCCCOC(=O)NS(=O)(=O)Nc1cc(-c2cc3cc(F)c(F)cc3[nH]2)ccc1OC` [Example 30, Carbamic Acid, [[[5-(5,6-difluoro-IH-indo-2-yl)2-methoxyphenyl]amino]-sulfonyl]-heptyl ester]: the melting point fell in the range of 178 to 180 °C. The negative logarithm of the IC50 (pIC50) in data set [1] is 7.85. Besides, in data set [2], the pIC50 was 8.30.
The matching figures for `COc1ccc(-c2cc3cc(F)c(F)cc3[nH]2)cc1NS(=O)(=O)NC(=O)OC/C=C/c1ccccc1` [Example 32, Carbamic Acid, [[[5-(5,6-difluoro-IH-indol-2-yl)-2-methoxyphenyl]amino]sulfonyl]-(2E)-3-phenyl-2-propenyl ester]: 149 to 152 °C, 7.80 and 8.22.
The compound `CCOCCOC(=O)NS(=O)(=O)Nc1cc(-c2cc3cc(F)c(F)cc3[nH]2)ccc1OC` [Example 47, Carbamic Acid, [[[5-(5,6-difluoro-IH-indol-2-yl)-2-methoxyphenyl]-amino]sulfonyl]-, 2-ethoxyethyl ester] gave a melting point of 178 to 181 °C. Also, in data set [1], the negative-log IC50 (pIC50) is 7.27. The compound further showed a negative-log IC50 (pIC50) in data set [2] of 7.36.
Consider `COc1ccc(C(=O)Nc2ccc(F)c(F)c2)cc1NS(=O)(=O)NC(=O)OC/C=C/c1ccccc1` [Example 33, Carbamic Acid, [[[5-[[(3,4-difluorophenyl)amino]carbonyl]-2-methoxyphenyl]amino]sulfonyl]-, (2E)-3-phenyl-2-propenyl ester], for which the melting point lay within 159 to 163 °C. Moreover, the negative-log IC50 (pIC50) in data set [1] was 7.89. The compound further gave a negative logarithm of the IC50 (pIC50) in data set [2] of 8.15.
On the same counts, the results for `COc1ccc(C(=O)Nc2ccc(F)c(F)c2)cc1NS(=O)(=O)NC(=O)OCc1ccccc1` [Example 42, Carbamic Acid, [[[5-[[(3,4-difluorophenyl)amino]carbonyl]-2-methoxyphenyl]amino]sulfonyl]-, Phenylmethyl Ester] are 173 to 176 °C, 7.12 and 7.72.
On the same counts, the results for `COc1ccc(C(=O)Nc2ccc(F)c(F)c2)cc1NS(N)(=O)=O` [Example 55, Benzamide, 3-[(aminosulfonyl)amino]-N-(3,4-difluorophenyl)-4-methoxy] are 167 to 170 °C, 7.54 and 7.72.
For the compound `COc1ccc(C(=O)Nc2ccc(F)c(F)c2)cc1NS(=O)(=O)NC(=O)OCCCOCc1ccccc1` [Example 50, Carbamic Acid, [[[5-[[(3,4-difluorophenyl)amino]carbonyl]-2-methoxyphenyl]amino]sulfonyl]-, 3-(phenylmethoxy)propyl ester], the melting point lay within 178 to 179 °C. In data set [1], the negative logarithm of the IC50 (pIC50) is 7.19. Besides, the pIC50 in data set [2] was 7.74.
`CCCCCCOC(=O)NS(=O)(=O)Nc1cc(C(=O)Nc2ccc(F)c(F)c2)ccc1OC` [Example 52, Carbamic Acid, [[[5-[[(3,4-difluorophenyl)amino]carbonyl]-2methoxyphenyl]amino]sulfonyl]-, Hexyl ester] registered a melting point of 175 to 178 °C. The pIC50 in data set [1] was 7.41. This compound gave a negative logarithm of the IC50 (pIC50) in data set [2] of 8.30.
`CCCCCCOC(=O)NS(=O)(=O)Nc1cc(-c2cc3cc(F)c(F)cc3[nH]2)ccc1OC` [Example 51, Carbamic Acid, [[[5-(5,6-difluoro-IH-indo-2yl)-methoxyphenyl]amino]-sulfonyl]-hexyl ester] registered a melting point of 186 to 188 °C. The pIC50 in data set [1] is 7.92. Further, the pIC50 in data set [2] was 8.70.
